Laboratory results from patent US4194006A, “Therapeutic application of acetyl-d,l-carnitine and other acyl derivatives of d,l-carnitine” (priority 1977, dated 1980).
Like-named read-outs stand apart in the source and are kept apart here.

Key:
in vivo = details: mouse, in vivo, iv
Excerpt: The tolerance of acetyl-d,l-carnitine and of the other aforementioned acyl derivatives of the formula (I), as well as their salts were investigated by comparing the LD50 obtained by administering the compounds intravenously in mice with the LD50 obtained under the same experimental conditions by intravenous injection of d,l-carnitine.

isolated rabbit hearts [1] = experiment: coronary vasodilator effect: coronary flow, isolated heart (Langendorff)
Procedure, shortened: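 Langendorff-perfused isolated rabbit hearts in oxygenated Ringer at 38.2° C; anoxia imposed until contractile force fell by 80%, then reoxygenated with or without test compound. Coronary flow, isometric contraction and ECG recorded by polygraph.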

isolated rat atrium = experiment: antiarrhythmic effect, isolated rat atrium method of M. Libonati and G. Segre; details: Rattus norvegicus; for inhibition at 0.1 µg/mL / activation at 0.1 µg/mL: 1·10^-4 g/lt; for inhibition at 0.1 µg/mL / inhibition at 0.01 µg/mL / inhibition at 0.001 µg/mL: decrease; for activation at 0.1 µg/mL / activation at 0.01 µg/mL / activation at 0.001 µg/mL: increase; for inhibition at 0.01 µg/mL / activation at 0.01 µg/mL: 1·10^-5 g/lt; for inhibition at 0.001 µg/mL / activation at 0.001 µg/mL: 1·10^-6 g/lt
isolated rabbit hearts [2] = experiment: cardiokinetic effect on isolated heart (Langendorff): contractile force after anoxia, positive inotropic effect; details: 10 minutes from interruption of anoxic period
Procedure, shortened: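 Rabbit hearts were perfused Langendorff-style with oxygenated Ringer at 38.2 °C. Anoxia was applied until contractile force dropped by 80%, then the hearts were reoxygenated with or without compound. Contractile force was expressed as a percentage 10 min after the anoxic period ended.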

female rats = experiment: antifatigue effect: rota-rod; format: in vivo, rat; details: Rattus norvegicus, ip, 0.25 h, read-out: percentage of animals staying on the rota-rod more than 180 seconds; for responders at 300 mg/kg: 300 mg/kg i.p.; for responders at 400 mg/kg: 400 mg/kg i.p.; for responders at 600 mg/kg: 600 mg/kg i.p.
Procedure, shortened: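 Female rats dosed intraperitoneally in saline, with controls given saline alone. Every 15 min after treatment animals were placed on a 6 cm rod rotating at 16 r.p.m. Value is the percentage of animals staying on the rod for more than 180 s, per session.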

[3] = read-out: Mean percent variation versus controls: excitability (-%)
[4] = read-out: Mean percent variation versus controls: frequency max (-%)
[5] = read-out: Mean percent variation versus controls: refractory period (+%)
[6] = read-out: Mean percent variation versus controls: rheobase (+%)
[7] = session 6 (every 15 minutes), * p < 0.05

## CCCCCCCCCCCCCCCCCC(=O)OC(CC(=O)[O-])C[N+](C)(C)C (racemic) [stearoyl-d,l-carnitine]
In vivo
  LD50: ~745 mg/kg
Isolated rabbit hearts [1]; 1·10^-5 g/lt
  Coronary flow, Mean ± S.E.: 81.05 ± 6.27%
Isolated rabbit hearts [1]; 1·10^-6 g/lt
  Coronary flow, Mean ± S.E.: 80.21 ± 8.78%
Isolated rabbit hearts [1]; 5·10^-6 g/lt
  Coronary flow, Mean ± S.E.: 77.30 ± 11.8%
Isolated rat atrium; [3]
  inhibition at 0.1 µg/mL: 12.3%
  inhibition at 0.01 µg/mL: 0%
  inhibition at 0.001 µg/mL: 0%
Isolated rat atrium; [4]
  inhibition at 0.1 µg/mL: 3.5%
  inhibition at 0.01 µg/mL: 1.92%
  inhibition at 0.001 µg/mL: 0%
Isolated rat atrium; [5]
  activation at 0.1 µg/mL: 24.6%
  activation at 0.01 µg/mL: 16.2%
  activation at 0.001 µg/mL: 15.6%
Isolated rat atrium; [6]
  activation at 0.1 µg/mL: 2.08%
  activation at 0.01 µg/mL: 3.84%
  activation at 0.001 µg/mL: 1.85%
Isolated rabbit hearts [2]; 1·10^-5 g/lt
  Contractile force, Mean ± S.E.: 32.8 ± 3.01%
Isolated rabbit hearts [2]; 1·10^-6 g/lt
  Contractile force, Mean ± S.E.: 27.1 ± 3.18%
Isolated rabbit hearts [2]; 5·10^-6 g/lt
  Contractile force, Mean ± S.E.: 27.5 ± 4.09%
Female rats; session 1 (every 15 minutes)
  responders at 300 mg/kg: 0%
  responders at 400 mg/kg: 0%
  responders at 600 mg/kg: 0%
Female rats; session 2 (every 15 minutes)
  responders at 300 mg/kg: 0%
  responders at 400 mg/kg: 0%
  responders at 600 mg/kg: 10%
Female rats; session 3 (every 15 minutes)
  responders at 300 mg/kg: 0%
  responders at 400 mg/kg: 0%
  responders at 600 mg/kg: 10%
Female rats; session 4 (every 15 minutes)
  responders at 300 mg/kg: 10%
  responders at 400 mg/kg: 10%
  responders at 600 mg/kg: 20%
Female rats; session 5 (every 15 minutes)
  responders at 300 mg/kg: 10%
  responders at 400 mg/kg: 20%
  responders at 600 mg/kg: 20%
Female rats; session 6 (every 15 minutes)
  responders at 300 mg/kg: 10%
Female rats; [7]
  responders at 400 mg/kg: 20%
  responders at 600 mg/kg: 20%
